ChEMBL document CHEMBL1148804, “Enzyme adaptation to inhibitor binding: a cryptic binding site in phenylethanolamine N-methyltransferase” (J Med Chem, 2007)

Species on record: Homo sapiens
Test: Ratio of Ki for wild type human PNMT to Ki for human PNMT K57 mutant

NS(=O)(=O)c1ccc2c(c1)CNCC2
Ratio Ki: 0.02
